In DBAASP:
Converted amounts (≈) assume the structure as drawn. Values belong to the compound of their own block, whether it stands above or below them.

How the values were obtained:
Experiment in all cases: ≥ marks a high value that may be exact or a test limit, other limits are often not marked, values filed in µg/mL are converted to µM
[1] = tested on: Acinetobacter calcoaceticus
Bacillus cereus = tested on: Bacillus cereus
Bacillus pumilus = tested on: Bacillus pumilus
[2] = tested on: Candida albicans ATCC 2002
[3] = tested on: Escherichia coli ATCC 25922
Pseudomonas aeruginosa = tested on: Pseudomonas aeruginosa
Shigella dysenteriae = tested on: Shigella dysenteriae
[4] = tested on: Staphylococcus aureus ATCC 2592
Bacillus subtilis BR151 = tested on: Bacillus subtilis BR151
[5] = tested on: Enterococcus faecium A634
Escherichia coli JM109 = tested on: Escherichia coli JM109
[6] = tested on: Staphylococcus aureus 1206
Leuconostoc lactis = tested on: Leuconostoc lactis
Listeria innocua = tested on: Listeria innocua
Micrococcus luteus = tested on: Micrococcus luteus
Pasteurella multocida = tested on: Pasteurella multocida
Pseudomonas haemolytica = tested on: Pseudomonas haemolytica
[7] = tested on: Staphylococcus aureus ATCC 25923
[8] = tested on: Staphylococcus aureus ATCC 29213
[9] = tested on: Staphylococcus epidermidis
Streptococcus uberis = tested on: Streptococcus uberis
[10] = tested on: Acinetobacter baumannii ATCC 19606
[11] = tested on: Bordetella bronchiseptica CUN 11844-99
[12] = tested on: Brucella abortus 9.49 (per-)
[13] = tested on: Escherichia coli CMCC 44102
[14] = tested on: Pseudomonas aeruginosa ATCC 27853
[15] = tested on: Pseudomonas aeruginosa CUN 4158-02
[16] = tested on: Staphylococcus aureus ATCC 43300
[17] = tested on: Staphylococcus aureus CMCC 26003
[18] = tested on: Staphylococcus aureus ΔmprFpRBsyn
[19] = tested on: Staphylococcus aureus ΔmprF
Staphylococcus aureus = tested on: Staphylococcus aureus
[20] = tested on: Staphylococcus epidermidis ATCC 12228
Yersinia pestis KIM pYV = tested on: Yersinia pestis KIM pYV
Escherichia coli KF111 = tested on: Escherichia coli KF111
Escherichia coli KF130 = tested on: Escherichia coli KF130
Escherichia coli UB1005 = tested on: Escherichia coli UB1005
Escherichia coli = tested on: Escherichia coli
[21] = tested on: Pseudomonas aeruginosa H374
[22] = tested on: Pseudomonas aeruginosa H744
[23] = tested on: Pseudomonas aeruginosa K799
[24] = tested on: Salmonella enterica subsp. enterica serovar Typhimurium ATCC 14028s

SMILES: CCC(C)[C@H](NC(=O)CN)C(=O)NCC(=O)N[C@@H](CCCCN)C(=O)N[C@@H](Cc1ccccc1)C(=O)N[C@@H](CC(C)C)C(=O)N[C@@H](Cc1cnc[nH]1)C(=O)N[C@@H](C)C(=O)N[C@@H](C)C(=O)N[C@@H](CCCCN)C(=O)N[C@@H](CCCCN)C(=O)N[C@@H](Cc1ccccc1)C(=O)N[C@@H](C)C(=O)N[C@@H](CCCCN)C(=O)N[C@@H](C)C(=O)N[C@@H](Cc1ccccc1)C(=O)N[C@H](C(=O)N[C@@H](C)C(=O)N[C@@H](CCC(=O)O)C(=O)N[C@H](C(=O)N[C@@H](CCSC)C(=O)N[C@@H](CC(N)=O)C(=O)N[C@@H](CO)C(N)=O)C(C)CC)C(C)C (stereo not given in full) [GIGKFLHAAKKFAKAFVAEIMNS]
- MIC (Bacillus subtilis BR151): 1.21 µM (≈ 3 µg/mL)
- MIC [5]: 20.2 µM (≈ 50 µg/mL)
- MIC (Escherichia coli JM109): 2.42 µM (≈ 6 µg/mL)
- MIC [6]: 20.2 µM (≈ 50 µg/mL)

SMILES: CC[C@H](C)[C@H](NC(=O)[C@H](CCCN=C(N)N)NC(=O)[C@H](CCCN=C(N)N)NC(=O)[C@H](CC(C)C)NC(=O)[C@H](Cc1ccccc1)NC(=O)[C@@H](NC(=O)[C@H](CCCN=C(N)N)NC(=O)[C@H](CCSC)NC(=O)[C@@H](NC(=O)[C@H](CCCCN)NC(=O)[C@H](CCCCN)NC(=O)[C@H](CS)NC(=O)[C@@H](NC(=O)CNC(=O)[C@H](CCCN=C(N)N)NC(=O)[C@H](CC(C)C)NC(=O)[C@@H](NC(=O)[C@@H](N)CCCCN)[C@@H](C)CC)C(C)C)[C@@H](C)CC)[C@@H](C)O)C(=O)N[C@@H](CO)C(=O)N[C@@H](CCCCN)C(=O)N[C@@H](CC(=O)O)C(=O)N[C@H](C(=O)N[C@@H](CC(C)C)C(=O)N[C@H](C(=O)NCC(=O)N[C@@H](CCCCN)C(=O)N[C@@H](CCCCN)C(N)=O)[C@@H](C)O)[C@@H](C)CC [KILRGVCKKIMRTFLRRISKDILTGKK]
- MIC [10]: 0.624 µM (≈ 2 µg/mL)
- MIC [11]: 1.25 µM (≈ 4 µg/mL)
- MIC [12]: 9.99 µM (≈ 32 µg/mL)
- MIC [3]: 5 µM (≈ 16 µg/mL)
- MIC [13]: 4 µM (≈ 12.8 µg/mL)
- MIC [14]: 8 µM (≈ 25.6 µg/mL)
- MIC [15]: 9.99 µM (≈ 32 µg/mL)
- MIC [16]: 79.9 µM (≈ 256 µg/mL)
- MIC [17]: 2 µM (≈ 6.4 µg/mL)
- MIC [18]: 2.5 µM (≈ 8 µg/mL)
- MIC [19]: 2.5 µM (≈ 8 µg/mL)
- MIC (Staphylococcus aureus): 20 µM (≈ 64 µg/mL)
- MIC [20]: 2 µM (≈ 6.4 µg/mL)
- MIC (Yersinia pestis KIM pYV): ≥ 79.9 µM

SMILES: CC[C@H](C)[C@H](NC(=O)[C@@H]1CCCN1C(=O)[C@H](CCCCN)NC(=O)[C@H](CC(C)C)NC(=O)[C@H](C)NC(=O)[C@@H](NC(=O)[C@H](Cc1cnc[nH]1)NC(=O)[C@H](Cc1ccccc1)NC(=O)[C@@H](NC(=O)[C@@H](NC(=O)[C@H](CCCN=C(N)N)NC(=O)[C@@H](NC(=O)[C@@H]1CCCN1C(=O)[C@H](CO)NC(=O)[C@H](CCCCN)NC(=O)[C@H](Cc1ccccc1)NC(=O)[C@@H](NC(=O)[C@H](CCCN=C(N)N)NC(=O)[C@H](CC(C)C)NC(=O)[C@H](Cc1ccccc1)NC(=O)[C@H](CO)NC(=O)[C@H](CCCCN)NC(=O)[C@H](Cc1c[nH]c2ccccc12)NC(=O)[C@@H](N)CCCCN)[C@@H](C)O)C(C)C)[C@@H](C)O)C(C)C)[C@@H](C)O)C(=O)N[C@@H](CO)C(=O)N[C@@H](CO)C(=O)O [KWKSFLRTFKSPVRTVFHTALKPISS]
- MIC (Escherichia coli KF111): 1.31 µM (≈ 4 µg/mL)
- MIC (Escherichia coli KF130): 1.31 µM (≈ 4 µg/mL)
- MIC (Escherichia coli UB1005): 0.653 µM (≈ 2 µg/mL)
- MIC (Escherichia coli): 0.653 µM (≈ 2 µg/mL)
- MIC [21]: 5.22 µM (≈ 16 µg/mL)
- MIC [22]: 5.22 µM (≈ 16 µg/mL)
- MIC [23]: 5.22 µM (≈ 16 µg/mL)
- MIC [24]: 2.61 µM (≈ 8 µg/mL)
- MIC (Staphylococcus aureus): > 20.9 µM
- MIC [9]: 5.22 µM (≈ 16 µg/mL)

Now from value to compound, other results behind:

- MIC [1]: ≥ 42.7 µM
- MIC (Bacillus cereus): ≥ 53.4 µM
- MIC (Bacillus pumilus): 5.34 µM (≈ 7.49 µg/mL)
- MIC [2]: 3.56 µM (≈ 5 µg/mL)
- MIC [3]: 5.34 µM (≈ 7.49 µg/mL)
- MIC (Pseudomonas aeruginosa): 3.56 µM (≈ 5 µg/mL)
- MIC (Shigella dysenteriae): 14.2 µM (≈ 20 µg/mL)
- MIC [4]: 5.34 µM (≈ 7.49 µg/mL)
SMILES: CC[C@H](C)[C@H](NC(=O)[C@@H]1CCCN1C(=O)[C@H](Cc1ccccc1)NC(=O)[C@@H](N)Cc1ccccc1)C(=O)N[C@H](C(=O)NCC(=O)N[C@@H](CCCCN)C(=O)N[C@@H](CC(C)C)C(=O)N[C@@H](CC(C)C)C(=O)N[C@@H](CO)C(=O)NCC(=O)N[C@@H](CC(C)C)C(=O)N[C@@H](CC(C)C)C(N)=O)C(C)C [FFPIVGKLLSGLL]

- MIC (Leuconostoc lactis): 1.16 µM (≈ 3 µg/mL)
- MIC (Listeria innocua): 19.3 µM (≈ 50 µg/mL)
- MIC (Micrococcus luteus): 9.64 µM (≈ 25 µg/mL)
- MIC (Pasteurella multocida): 9.64 µM (≈ 25 µg/mL)
- MIC [7]: 2.31 µM (≈ 6 µg/mL)
- MIC [8]: 4.63 µM (≈ 12 µg/mL)
- MIC [9]: 4.63 µM (≈ 12 µg/mL)
- MIC (Streptococcus uberis): 9.64 µM (≈ 25 µg/mL)
SMILES: CC[C@H](C)[C@H](NC(=O)[C@@H](NC(=O)[C@@H]1CCCN1C(=O)[C@@H](NC(=O)[C@@H](NC(=O)[C@H](Cc1cnc[nH]1)NC(=O)[C@@H]1CCCN1C(=O)[C@H](CC(C)C)NC(=O)[C@@H](NC(=O)[C@H](Cc1cnc[nH]1)NC(=O)[C@H](CCCCN)NC(=O)[C@H](C)NC(=O)[C@@H](NC(=O)[C@H](C)NC(=O)CNC(=O)[C@H](CC(C)C)NC(=O)[C@@H](NC(=O)[C@H](CO)NC(=O)[C@H](Cc1ccccc1)NC(=O)[C@H](CC(C)C)NC(=O)CN)C(C)C)C(C)C)C(C)C)C(C)C)C(C)C)C(C)C)C(=O)N[C@@H](C)C(=O)N[C@@H](CCC(=O)O)C(=O)N[C@@H](CCCCN)C(=O)N[C@@H](CC(C)C)C(N)=O [GLFSVLGAVAKHVLPHVVPVIAEKL]
- MIC (Pseudomonas haemolytica): 19.3 µM (≈ 50 µg/mL)
